How the values were obtained:
[1] = test system: TNFα production in LPS-stimulated leukocytes (human whole blood); assay: TNFα production in human whole blood (LPS-stimulated); assay type: cell-based; conditions: Leukocyte, 1 hr preincubation, LPS 50 ng/ml, 20 hours
Text: Assay 2: TNFα Production in Human Whole Blood
p38 Mitogen-activated protein (MAP) kinase (p38) regulates the biosynthesis of pro-inflammatory cytokines such as TNFα. The potency as an inhibitor of cytokine production can thus be assessed by measuring the effects on TNFα production in LPS-stimulated leukocytes. Carrying the assay out on whole blood rather than isolated leukocytes gives a measure of whole cell potency of the compound in the presence of plasma protein and cells, particularly red blood cells that in vivo are likely to lower circulating free drug concentrations. […] The concentrations of TNF in the original whole blood assay supernatants can then be determined from a standard curve generated using authentic human TNFα.
Heparinised blood drawn from normal volunteers was dispensed (100 μl) into microtitre plate wells containing 0.5 or 1.0 μl of an appropriately diluted compound solution. […] Plasma TNFα content was determined by electrochemiluminescence assay using the IGEN technology. […]
TNF assay plates (MSD: cat L41IB-1) were blocked overnight with 20 μl human serum cytokine diluent (MSD). […] 150 μl 2× read buffer T (MSD Cat R92TC-1) was added to the whole blood plates and 90 μl 2.5× read buffer P (MSD Cat R92PC-1) to the PBMC plates and all plates read in the MSD Sector Imager 6000 electrochemiluminescence reader.

[2] = target: T1, Recombinant human p38α (Homo sapiens, UniProt Q16539); assay: Fluorescence anisotropy kinase binding assay; conditions: 12 nM p38α, 5 nM fluorescent ligand
T1 construct: GST; made in house
T1 sequence (Q16539 whole entry): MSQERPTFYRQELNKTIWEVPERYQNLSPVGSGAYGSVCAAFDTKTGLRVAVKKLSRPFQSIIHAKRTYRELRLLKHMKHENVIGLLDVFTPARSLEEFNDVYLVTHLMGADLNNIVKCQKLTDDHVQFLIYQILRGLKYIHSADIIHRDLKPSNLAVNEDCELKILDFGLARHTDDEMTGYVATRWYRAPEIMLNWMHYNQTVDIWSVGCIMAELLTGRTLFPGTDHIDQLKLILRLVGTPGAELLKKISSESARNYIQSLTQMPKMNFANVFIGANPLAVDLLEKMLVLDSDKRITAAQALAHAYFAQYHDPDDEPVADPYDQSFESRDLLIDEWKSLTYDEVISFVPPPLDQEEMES
Protocol: Assay 1: Fluorescence Anisotropy Kinase Binding Assay
The concentration of kinase enzyme should preferably be 2×Kf. The concentration of fluorescent ligand required will depend on the instrumentation used, and the fluorescent and physicochemical properties. The concentration used must be lower than the concentration of kinase enzyme, and preferably less than half the kinase enzyme concentration.
Recombinant human p38α was expressed as a GST-tagged protein. To activate this protein, 3.5 μM unactivated p38α was incubated in 50 mM Tris-HCl pH 7.5, 0.1 mM EGTA, 0.1% 2-mercaptoethanol, 0.1 mM sodium vanadate, 10 mM MgAc, 0.1 mM ATP with 200 nM MBP-MKK6 DD at 30 degrees for 30 mins. Following activation p38α was re-purified and the activity assessed using a standard filter-binding assay.
All components are dissolved in buffer of composition 62.5 mM HEPES, pH 7.5, 1.25 mM CHAPS, 1 mM DTT, 12.5 mM MgCl2 with final concentrations of 12 nM p38α and 5 nM fluorescent ligand. 30 μl of this reaction mixture is added to wells containing 1 μl of various concentrations of test compound (0.28 nM-16.6 μM final) or DMSO vehicle (3% final) in NUNC 384 well black microtitre plate and equilibrated for 30-60 mins at room temperature. Fluorescence anisotropy is read in Molecular Devices Acquest (excitation 485 nm/emission 535 nm).
Definitions: Ki=dissociation constant for inhibitor binding […]

Cc1c(F)cc(C(=O)Nc2ccon2)cc1-c1ccc(C(=O)NCC(C)(C)C)cn1 [Example 1]
IC50 [1]: < 50 nM | IC50 [2]: < 50 nM

Reference: patent US20080214623A1, “N-(2,2-Dimethylpropyl)-6- -3-Pyridinecarboxamide” (priority 2005, published 2008)
